# Patent publication US6160004A, “C-10 carbon-substituted artemisinin-like trioxane compounds having antimalarial, antiproliferative and antitumor activities” (priority 1998, dated 2000)
# Read-outs that look alike come from different tables or passages of the source.
# Legend:
# [1] = tested on: EKVX; experiment: NCI 60 cell line panel screening assay (SRB), EKVX; format: cell-based; details: Homo sapiens, non-small cell lung cancer, 48 h, read-out: Log10 GI50 (converted)
# [2] = tested on: HOP-62; experiment: cells; format: cell-based; details: Homo sapiens, HOP-62, non-small cell lung cancer, 48 h
# [3] = tested on: NCI-H226; experiment: cells; format: cell-based; details: Homo sapiens
# [4] = tested on: NCI-H23; experiment: cells; format: cell-based; details: Homo sapiens, NCI-H23, non-small cell lung cancer, 48 h
# [5] = tested on: NCI-H460; experiment: cells; format: cell-based; details: Homo sapiens, NCI-H460, non-small cell lung cancer, 48 h
# [6] = tested on: SNB-19; experiment: cells; format: cell-based; details: Homo sapiens; for IC (TGI): read-out: Log10 TGI; for CC50: read-out: Log10 LC50 (converted)
# [7] = tested on: UACC-257; experiment: cells; format: cell-based
# [8] = tested on: OVCAR-8; experiment: cells; format: cell-based; details: Homo sapiens
# [9] = tested on: 786-0; experiment: cells; format: cell-based; details: Homo sapiens; for GI50: read-out: Log10 GI50 (converted)
# [10] = tested on: A498; experiment: cells; format: cell-based; details: Homo sapiens; for IC (TGI): read-out: Log10 TGI
# [11] = tested on: ACHN; experiment: NCI 60 cell line panel screening assay (SRB), ACHN; format: cell-based; details: Homo sapiens, renal cancer, 48 h, read-out: Log10 GI50 (converted)
# [12] = tested on: RXF 393; experiment: cells; format: cell-based; details: Homo sapiens; for IC (TGI): RXF 393, renal cancer, 48 h, read-out: Log10 TGI
# [13] = tested on: HS 578T; experiment: cells; format: cell-based; details: Homo sapiens, 48 h, read-out: Log10 GI50 (converted)
# [14] = tested on: 60 cell line panel; experiment: NCI 60 cell line panel, whole panel; details: panel
# [15] = tested on: CCRF-CEM; experiment: cells; format: cell-based; details: Homo sapiens, 48 h; for CC50: read-out: Log10 LC50 (converted)
# [16] = tested on: SF-295; experiment: cells; format: cell-based; details: Homo sapiens
# [17] = tested on: SF-539; experiment: cells; format: cell-based; details: Homo sapiens, SF-539, 48 h, read-out: Log10 LC50 (converted)
# [18] = tested on: MALME-3M; experiment: cells; format: cell-based; details: Homo sapiens, MALME-3M, melanoma, 48 h
# [19] = tested on: SK-MEL-2; experiment: cells; format: cell-based; details: Homo sapiens, SK-MEL-2, 48 h, read-out: Log10 LC50 (converted)
# [20] = tested on: OVCAR-3; experiment: cells; format: cell-based; details: Homo sapiens; for CC50: read-out: Log10 LC50 (converted)
# [21] = tested on: MCF7/ADR-RES; experiment: cells; format: cell-based; details: Homo sapiens
# [22] = tested on: MDA-MB231/ATCC; experiment: cells; format: cell-based; details: Homo sapiens, MDA-MB-231, breast cancer, 48 h
# [23] = tested on: HL-60(TB); experiment: cells; format: cell-based; details: Homo sapiens, HL-60, 48 h
# [24] = tested on: A549/ATCC; experiment: NCI 60 cell line panel screening assay (SRB), A549/ATCC; format: cell-based; details: Homo sapiens, non-small cell lung cancer, 48 h, read-out: Log10 GI50 (converted)
# [25] = tested on: NCI-H522; experiment: cells; format: cell-based; details: Homo sapiens, NCI-H522, 48 h
# [26] = tested on: LOX IMVI; experiment: cells; format: cell-based; details: Homo sapiens, 48 h, read-out: Log10 GI50 (converted)
# [27] = tested on: OVCAR-4; experiment: cells; format: cell-based; details: Homo sapiens
# [28] = tested on: UO-31; experiment: NCI 60 cell line panel screening assay (SRB), UO-31; format: cell-based; details: Homo sapiens, UO-31, renal cancer, 48 h
# [29] = tested on: MDA-MB435; experiment: NCI 60 cell line panel screening assay (SRB), MDA-MB435; format: cell-based; details: Homo sapiens, MDA-MB-435, 48 h
# [30] = tested on: chloroquine-sensitive P. falciparum (NF54); experiment: In vitro antimalarial activity ([3H]hypoxanthine incorporation); format: cell-based; details: Plasmodium falciparum; chloroquine-sensitive P. falciparum NF54, in vitro
# [31] = read-out: Log10 GI50 (converted)
# [32] = read-out: Log10 TGI (converted)
# [33] = Homo sapiens, UACC-257, 48 h; read-out: Log10 TGI (converted)
# [34] = read-out: Log10 LC50 (converted)
compound,measurement,setting,value
C[C@@H]1CC[C@H]2[C@@H](C)C(=O)O[C@@H]3O[C@@]4(C)CC[C@@H]1[C@]32OO4 [Artemisinin],GI50,[1],> 100 µM
same,GI50,[2]; [31],> 100 µM
same,GI50,"[3]; NCI-H226, non-small cell lung cancer, 48 h, read-out: Log10 GI50 (converted)",> 100 µM
same,GI50,[4]; [31],> 100 µM
same,GI50,[5]; [31],> 100 µM
same,IC (TGI),[5]; [32],> 100 µM
same,GI50,"[6]; SNB-19, CNS cancer, 48 h, read-out: Log10 GI50 (converted)",> 100 µM
same,IC (TGI),"[6]; SNB-19, CNS cancer, 48 h",> 100 µM
same,GI50,"[7]; Homo sapiens, UACC-257, 48 h; read-out: Log10 GI50 (converted)",> 100 µM
same,IC (TGI),[7]; [33],> 100 µM
same,GI50,"[8]; OVCAR-8, ovarian cancer, 48 h, read-out: Log10 GI50 (converted)",> 100 µM
same,GI50,"[9]; 786-0, renal cancer, 48 h",> 100 µM
same,IC (TGI),"[9]; 786-0, renal cancer, 48 h, read-out: Log10 TGI",> 100 µM
same,GI50,"[10]; A498, renal cancer, 48 h, read-out: Log10 GI50 (converted)",> 100 µM
same,IC (TGI),"[10]; A498, renal cancer, 48 h",> 100 µM
same,GI50,[11],> 100 µM
same,IC (TGI),[12],> 100 µM
same,GI50,"[13]; HS 578T, breast cancer",> 100 µM
same,Delta of Log10 LC50,[14],-4.00
same,Range of Log10 TGI,[14],0.06
"C[C@H]1[C@@H](F)O[C@@H]2O[C@@]3(C)CC[C@H]4[C@H](C)CC[C@@H]1[C@@]24OO3 [Compound VI, 10β-Fluoro-10-deoxoartemisinin]",CC50,[15]; leukemia,> 100 µM
same,IC (TGI),[2]; [32],61.7 µM
same,CC50,"[3]; NCI-H226, 48 h, read-out: Log10 LC50 (converted)",> 100 µM
same,IC (TGI),"[3]; NCI-H226, non-small cell lung cancer, 48 h, read-out: Log10 TGI",> 100 µM
same,CC50,[4]; [34],> 100 µM
same,CC50,"[16]; SF-295, 48 h, read-out: Log10 LC50 (converted)",> 100 µM
same,GI50,"[16]; SF-295, CNS cancer, 48 h, read-out: Log10 GI50 (converted)",17 µM
same,IC (TGI),"[16]; SF-295, CNS cancer, 48 h, read-out: Log10 TGI",> 100 µM
same,CC50,[17],> 100 µM
same,CC50,"[6]; SNB-19, 48 h",> 100 µM
same,IC (TGI),"[6]; SNB-19, CNS cancer, 48 h",> 100 µM
same,GI50,[18]; [31],2.34 µM
same,IC (TGI),[18]; read-out: Log10 TGI,> 100 µM
same,CC50,[19],> 100 µM
same,CC50,"[7]; Homo sapiens, UACC-257, 48 h, read-out: Log10 LC50 (converted)",> 100 µM
same,IC (TGI),[7]; [33],> 100 µM
same,CC50,"[20]; OVCAR-3, 48 h",> 100 µM
same,IC (TGI),"[20]; OVCAR-3, ovarian cancer, 48 h, read-out: Log10 TGI (converted)",> 100 µM
same,CC50,"[8]; OVCAR-8, 48 h, read-out: Log10 LC50 (converted)",> 100 µM
same,CC50,"[10]; A498, 48 h, read-out: Log10 LC50 (converted)",> 100 µM
same,IC (TGI),"[10]; A498, renal cancer, 48 h",> 100 µM
same,CC50,"[12]; RXF 393, 48 h, read-out: Log10 LC50 (converted)",> 100 µM
same,IC (TGI),[12],> 100 µM
same,CC50,"[21]; MCF7, 48 h, read-out: Log10 LC50 (converted)",> 100 µM
same,IC (TGI),"[21]; MCF7/ADR-RES, breast cancer, 48 h, read-out: Log10 TGI",> 100 µM
same,GI50,[22]; [31],13.2 µM
same,CC50,[22]; [34],> 100 µM
same,Delta of Log10 TGI,[14],1.18
same,Range of Log10 TGI,[14],1.56
CC1CCC2C(C)C(CC(=O)c3ccc(C(=O)CC4OC5OC6(C)CCC7C(C)CCC(C4C)C57OO6)cc3)OC3OC4(C)CCC1C32OO4 (centres unmarked) [Dimer 38],GI50,[15]; [31],< 0.01 µM
same,CC50,[15],> 100 µM
same,GI50,[23]; [31],< 0.01 µM
same,CC50,[23]; [34],> 100 µM
same,GI50,[24],< 0.01 µM
same,GI50,[25]; [31],< 0.01 µM
same,CC50,[25]; [34],> 100 µM
same,CC50,"[6]; SNB-19, CNS cancer, 48 h",> 100 µM
same,GI50,[26],< 0.01 µM
same,GI50,"[7]; Homo sapiens, UACC-257, 48 h, read-out: Log10 GI50 (converted)",0.0209 µM
same,CC50,"[7]; Homo sapiens, UACC-257, 48 h; read-out: Log10 LC50 (converted)",> 100 µM
same,CC50,"[20]; OVCAR-3, ovarian cancer, 48 h",> 100 µM
same,IC (TGI),"[27]; OVCAR-4, 48 h, read-out: Log10 TGI",> 100 µM
same,CC50,"[27]; OVCAR-4, ovarian cancer, 48 h, read-out: Log10 LC50 (converted)",> 100 µM
same,GI50,"[9]; 786-0, 48 h",0.0151 µM
same,GI50,[28]; [31],0.024 µM
same,CC50,[28]; [34],> 100 µM
same,GI50,[13]; Hs-578T,< 0.01 µM
same,GI50,[29]; [31],< 0.01 µM
same,CC50,[29]; [34],> 100 µM
same,IC50,[30],0.0019 µM
same,Delta of Log10 TGI,[14],3.17
